Data: US20220204449A1, “BIASED AGONISTS OF OPIOID RECEPTORS” (ILDONG PHARMACEUTICAL CO., LTD., priority 2020, published 2022)
“Also recorded” adds a separate entry of the source.

Key:
Assay type in all cases: cell-based
[1] = biological target: T1, human δ-opioid receptor, OPRD (Homo sapiens, UniProt P41143); assay: cAMP accumulation assay (Gi pathway), OPRD cell line; conditions: for OPRD Gi Hill slope: cAMP concentration-response curve; for Emax: normalized to reference agonist SNC80
T1 construct: host or cells: HEK-293 overexpressing β-arrestin2 fused to a β-galactosidase fragment
Text: (§1) Human embryonic kidney 293 (HEK-293) cells which transfected overexpress (3-arrestin2 fused β-galactosidase fragment were purchased from DiscoverX. Human OPRM1 gene (NM 000914.3, encoding human μ-opioid receptor, OPRM) and Human OPRD1 gene (NM 000911.3, encoding human δ-opioid receptor, OPRD) were fused to a pCMV-ProLink plasmid which contains complementary β-galactosidase fragment purchased from DiscoverX. To generate human OPRM1 or OPRD1 expression cell lines, HEK-293 cells were transfected to prepared plasmid and grown in DMEM medium with 10% fetal bovine serum, 150 μg/mL Hygromycin B and 500 μg/mL G418.
(§2) Cyclic Adenosine Monophosphate (cAMP) Accumulation
(§3) The agonist's efficacy to the G protein pathway was determined by changes in the cAMP level using the Cisbio cAMP detection kit. The cells used in cAMP assays are the same cell line as used in the β-arrestin 2 assays. The human opioid receptor activates the Gαi so intracellular cAMP accumulation is inhibited. Cisbio detection kit uses labeled cAMP and antibody. This system proceeds to compete with endogenous cAMP. If Gαi is activated, intracellular cAMP decreases. This assures that labeled-cAMP binds more with the antibody so that time-resolved fluorescence […].
(§4) cAMP and β-arrestin assays described above were conducted to decide whether candidate compounds were μ- and/or δ-opioid receptor bias agonists for the G-protein pathway. All assays produced the concentration-response curve, and the curve data was validated by a quality control factor named Z′ factor. Because half-maximal effect concentration (EC50) depends on the population of receptors, the maximal asymptote of the concentration curve was used. Efficacy data of candidates was normalized by comparison to reference agonists DAMGO and SNC80 for OPRM and OPRD.
(§5) The hill slope describes the steepness of the curve. […] We set the appropriate interval of hill slope as 0.8<n<1.5 which maintains the sigmoidal curve shape.

[2] = biological target: T2, human μ-opioid receptor, OPRM (Homo sapiens, UniProt P35372); assay: PathHunter β-arrestin 2 assay, OPRM cell line
T2 construct: host or cells: HEK-293 overexpressing β-arrestin2 fused to a β-galactosidase fragment
Text: as §1
(§6) The PathHunter enzyme assay was performed to measure the agonist's capability of β-arrestin 2 pathway activation. When agonists bind to G protein-coupled receptor (GPCR), the receptor pathway is sequentially activated from G protein to β-arrestin 2 recruitment.
(§7) Because […] β-arrestin 2 and C-terminal of GPCR have a fragment of β-galactosidase, recruitment of β-arrestin 2 to GPCR forms the whole β-galactosidase. The functionality of the whole β-galactosidase is detected by chemiluminescence (FlexStation3, Molecular Devices).
as §4

[3] = biological target: T1, human δ-opioid receptor, OPRD; assay: Dominant assay: cAMP assay with/without irreversible antagonist β-CNA, OPRD cell line; conditions: for completeness of concentration-response curve, in words: OPRD system
Text: (§8) To confirm the agonist's efficacy in a nature-like system, we need inactivation of target receptors on the cell membrane. Most cell lines have an abundant target receptor population (also known as spare receptors). Therefore, agonists have more opportunity to constitute agonist-receptor conformation. In this environment, not only full agonists but also partial agonists can reach maximal response.
(§9) If the partial agonist is selected as a full agonist, translational in vivo research will likely fail.
(§10) Non-competitive, irreversible antagonists can be applicable to judge the pharmacological character of agonists because they permanently decrease the receptor population in the cell line system. β-FNA or β-CNA is used as a non-competitive and irreversible antagonist for OPRM, OPRD. Before cAMP assay, cells were incubated with β-FNA or β-CNA for 40 minutes. Afterwards, the procedure is the same.
(§11) If a partial agonist compound acts as a full agonist due to receptor population (pseudo full agonist), it cannot sustain maximal response with reduced receptor population. However, a full agonist compound maintains their maximal response even though increased EC50.

[4] = biological target: T2, human μ-opioid receptor, OPRM; assay: cAMP accumulation assay (Gi pathway), OPRM cell line; conditions: for EC50 / OPRM Gi Hill slope / Emax: Table 1; for EC50 / Emax: cAMP; for OPRM Gi Hill slope: cAMP concentration-response curve; for Emax: normalized to reference agonist DAMGO
Text: as §1, §2, §3, §4, §5

[5] = biological target: T2, human μ-opioid receptor, OPRM; assay: Dominant assay: cAMP assay with/without irreversible antagonist β-FNA, OPRM cell line; conditions: for maximal response on decreasing receptor population (dominant tendency), in words: OPRM cell lines, β-FNA
Text: as §8, §9, §10, §11

[6] = biological target: T1, human δ-opioid receptor, OPRD; assay: PathHunter β-arrestin 2 assay, OPRD cell line
Text: as §1, §6, §7, §4

[7] = Table 1, cAMP, read-out: OPRD Gi EC50
[8] = Example 3, Tables 5-7, read-out: OPRM β-ARR2 Emax (%)
[9] = Table 1, normalized to reference agonist DAMGO, read-out: OPRM arrestin Emax, %
[10] = addition of β-CNA, Example 3, Tables 5-7, read-out: OPRD Gi β-CNA (+) EC50
[11] = addition of β-CNA, Example 3, Tables 5-7, read-out: OPRD Gi β-CNA (+) Emax (%)
[12] = addition of β-CNA, repeated dominant assay, Example 4, Tables 8-10, read-out: OPRD Gi β-CNA (+) EC50
[13] = addition of β-CNA, repeated dominant assay, Example 4, Tables 8-10, read-out: OPRD Gi β-CNA (+) Emax (%)
[14] = no addition of β-CNA, Example 3, Tables 5-7, read-out: OPRD Gi β-CNA (−) EC50
[15] = no addition of β-CNA, Example 3, Tables 5-7, read-out: OPRD Gi β-CNA (−) Emax (%)
[16] = no addition of β-CNA, repeated dominant assay, Example 4, Tables 8-10, read-out: OPRD Gi β-CNA (−) EC50
[17] = no addition of β-CNA, repeated dominant assay, Example 4, Tables 8-10, read-out: OPRD Gi β-CNA (−) Emax (%)
[18] = addition of β-FNA, Example 3, Tables 5-7, read-out: OPRM Gi β-FNA (+) EC50
[19] = addition of β-FNA, Example 3, Tables 5-7, read-out: OPRM Gi β-FNA (+) Emax (%)
[20] = addition of β-FNA, repeated dominant assay, Example 4, Tables 8-10, read-out: OPRM Gi β-FNA (+) EC50
[21] = addition of β-FNA, repeated dominant assay, Example 4, Tables 8-10, read-out: OPRM Gi β-FNA (+) Emax (%)
[22] = no addition of β-FNA, Example 3, Tables 5-7, read-out: OPRM Gi β-FNA (−) EC50
[23] = no addition of β-FNA, Example 3, Tables 5-7, read-out: OPRM Gi β-FNA (−) Emax (%)
[24] = no addition of β-FNA, repeated dominant assay, Example 4, Tables 8-10, read-out: OPRM Gi β-FNA (−) EC50
[25] = no addition of β-FNA, repeated dominant assay, Example 4, Tables 8-10, read-out: OPRM Gi β-FNA (−) Emax (%)
[26] = Example 3, Tables 5-7, read-out: OPRD β-ARR2 Emax (%)
[27] = Table 1, normalized to reference agonist SNC80, read-out: OPRD arrestin Emax, %

T2 sequence (P35372 whole entry, the tested form may be a part): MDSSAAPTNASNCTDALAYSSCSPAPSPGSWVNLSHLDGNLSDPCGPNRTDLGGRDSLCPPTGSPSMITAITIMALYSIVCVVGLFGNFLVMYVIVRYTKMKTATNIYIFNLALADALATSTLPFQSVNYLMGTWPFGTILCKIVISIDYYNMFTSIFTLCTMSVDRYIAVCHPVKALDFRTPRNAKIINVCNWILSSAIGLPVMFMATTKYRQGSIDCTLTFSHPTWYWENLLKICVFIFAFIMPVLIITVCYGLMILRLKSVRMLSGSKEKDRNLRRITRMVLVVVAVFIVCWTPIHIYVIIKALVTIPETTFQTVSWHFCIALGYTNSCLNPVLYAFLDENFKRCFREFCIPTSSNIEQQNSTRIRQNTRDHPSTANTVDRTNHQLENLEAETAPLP
T1 sequence (P41143 whole entry, the tested form may be a part): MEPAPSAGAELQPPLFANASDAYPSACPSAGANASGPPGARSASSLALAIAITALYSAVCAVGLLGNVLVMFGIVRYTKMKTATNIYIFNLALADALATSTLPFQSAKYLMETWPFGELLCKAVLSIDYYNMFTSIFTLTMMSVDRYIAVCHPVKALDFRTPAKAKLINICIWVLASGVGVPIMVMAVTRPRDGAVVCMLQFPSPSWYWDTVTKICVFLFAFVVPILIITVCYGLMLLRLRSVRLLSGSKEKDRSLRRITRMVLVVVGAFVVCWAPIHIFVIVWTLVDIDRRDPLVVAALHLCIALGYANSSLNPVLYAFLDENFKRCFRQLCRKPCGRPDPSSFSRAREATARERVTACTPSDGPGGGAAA

Compound	OPRD Gi Hill slope ([1]; Table 1)	Emax ([1]; Table 1, cAMP)	EC50 [1, 7]	Emax [2, 8]	Emax [2, 9]	completeness of concentration-response curve, in words [3]	EC50 [3, 10]	Emax [3, 11]	EC50 [3, 12]	Emax [3, 13]	EC50 [3, 14]	Emax [3, 15]	EC50 [3, 16]	OPRM Gi Hill slope [4]	Emax [4]	maximal response on decreasing receptor population (dominant tendency), in words [5]	Emax [5, 19]	Emax [5, 23]	Emax [6, 26]	Emax [6, 27]	also measured
Cc1ccccc1NC(=O)NCC(c1ccc2c(c1)CCO2)N(C)C (racemic) [Compound 3, 3-[2-(2,3-dihydro-1-benzofuran-5-yl)-2-(dimethylamino)ethyl]-1-(2-methylphenyl)urea]	1.16	94.6%	8.37 µM	12.2%	12.2%	curve was cut due to the X-axis limitation	10600 nM	50.9%	4450 nM	48.2%	4350 nM	106%	3630 nM	1.48	112%	showed a similar pattern as compared to DAMGO	91.3%	97.9%	1.99%	1.99%	Emax [3, 17]: 100%; EC50 [4]: 1.29 µM; EC50 [5, 18]: 1.58 µM; EC50 [5, 20]: 0.0227 µM; Emax [5, 21]: 75.5%; EC50 [5, 22]: 0.656 µM; EC50 [5, 24]: 0.036 µM; Emax [5, 25]: 102%
COc1ccsc1CNCC[C@@]1(c2ccccn2)CCOC2(CCCC2)C1 [TRV130, reference compound]	1.28	63.4%	–	2.4%	2.41%	produced a full concentration-response curve	–	67.2%	–	–	–	73.9%	–	0.35	101%	susceptible to decreasing receptor populations than DAMGO; also recorded: attenuates the efficacy; also recorded: more susceptible to decreasing receptor populations than DAMGO	56.3%	89.5%	9.6%	9.6%	EC50 [1]: 2.04 µM; EC50 ([3]; OPRD Gi β-CNA (+) EC50 (nM), addition of β-CNA, Example 3, Tables 5-7): 1200 nM; EC50 ([3]; OPRD Gi β-CNA (−) EC50 (nM), no addition of β-CNA, Example 3, Tables 5-7): 1.49 nM; maximal response on decreasing receptor population (dominant tendency), in words ([3]; OPRD cell lines, β-CNA): more susceptible to decreasing receptor populations than SNC80; also recorded: less resistance to decreasing spare receptors than SNC80; Gi pathway agonism, in words ([4]; OPRM): full agonism
CN(C)C(CNC(=O)Cc1ccc2c(c1)OCCO2)c1ccccc1 (racemic) [Compound 1, 2-(2,3-dihydro-1,4-benzodioxin-6-yl)-N-[2-(dimethylamino)-2-phenylethyl]acetamide]	1.39	88.9%	4.16 µM	12.9%	12.9%	curve was cut due to the X-axis limitation	9 nM	108%	7870 nM	46.6%	4.91 nM	113%	8770 nM	0.99	102%	showed a similar pattern as compared to DAMGO	88.2%	101%	7.37%	7.37%	Emax [3, 17]: 104%; EC50 [4]: 0.73 µM; EC50 [5, 18]: 5.86 µM; EC50 [5, 20]: 3.88 µM; Emax [5, 21]: 67.5%; EC50 [5, 22]: 2.09 µM; EC50 [5, 24]: 1.16 µM; Emax [5, 25]: 100%
